These compounds were tested against T1, cMET receptor tyrosine kinase (GST-cMET (969-1390)) (Homo sapiens, UniProt P08581) (assay: EPK cMET profiling assay (LanthaScreen TR-FRET antibody based kinase phosphorylation assay)). Details: purified recombinant GST-cMET (969-1390), 2 μM ATP, 50 nM Fluorescein-PolyEAY, 60 minutes at room temperature; read-out: c-Met IC50.
T1 construct: made in house
Type: biochemical
Method in brief: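 Compounds tested at eight final concentrations from 10 down to 0.003 µM against affinity-purified GST-cMET (969-1390, 0.3 nM) with 2 µM ATP and 50 nM fluorescein-PolyEAY in Tris buffer with MgCl2 and MnCl2, 1 h at room temperature. After EDTA stop, phosphoproduct detected by LanthaScreen TR-FRET with Tb-PY20 antibody, end-point measurement.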

T1 sequence (P08581 969-1390): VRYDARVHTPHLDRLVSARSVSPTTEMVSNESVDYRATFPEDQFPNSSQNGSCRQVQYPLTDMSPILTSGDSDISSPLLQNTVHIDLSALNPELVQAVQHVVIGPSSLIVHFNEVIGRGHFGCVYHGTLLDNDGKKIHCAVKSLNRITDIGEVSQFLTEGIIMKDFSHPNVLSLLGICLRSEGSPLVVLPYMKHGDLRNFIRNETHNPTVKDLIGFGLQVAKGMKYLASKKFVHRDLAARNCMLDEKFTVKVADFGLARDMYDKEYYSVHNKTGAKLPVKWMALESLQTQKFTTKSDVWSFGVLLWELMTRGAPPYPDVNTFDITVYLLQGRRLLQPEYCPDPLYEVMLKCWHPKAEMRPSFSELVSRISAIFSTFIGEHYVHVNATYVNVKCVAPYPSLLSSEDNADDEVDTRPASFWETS

Row | Compound | IC50 [nM]
1 | c1cnc2ccc(Cc3cnc4ccc(-c5cncnc5)nn34)cc2c1 [Example 54, 6-(6-Pyrimidin-5-yl-imidazo[1,2-b]pyridazin-3-ylmethyl)-quinoline] | 120
2 | CC(=O)c1cccc(-c2ccc3ncc(Cc4ccc5ncccc5c4)n3n2)c1 [Example 55, 1-[3-(3-Quinolin-6-ylmethyl-imidazo[1,2-b]pyridazin-6-yl)-phenyl]-ethanone] | 31
3 | COc1ncc(-c2ccc3ncc(Cc4ccc5ncccc5c4)n3n2)cn1 [Example 56, 6-[6-(2-Methoxy-pyrimidin-5-yl)-imidazo[1,2-b]pyridazin-3-ylmethyl]-quinoline] | 250
4 | NC(=O)c1cccc(-c2ccc3ncc(Cc4ccc5ncccc5c4)n3n2)c1 [Example 57, 3-(3-Quinolin-6-ylmethyl-imidazo[1,2-b]pyridazin-6-yl)-benzamide] | 63
5 | CNC(=O)c1cccc(-c2ccc3ncc(Cc4ccc5ncccc5c4)n3n2)c1 [Example 58, N-Methyl-3-(3-quinolin-6-ylmethyl-imidazo[1,2-b]pyridazin-6-yl)-benzamide] | 250
6 | CN(C)C(=O)c1cccc(-c2ccc3ncc(Cc4ccc5ncccc5c4)n3n2)c1 [Example 59, N,N-Dimethyl-3-(3-quinolin-6-6-ylmethyl-imidazo[1,2-b]pyridazin-6-yl)-benzamide] | 560
7 | CCOC(=O)c1cccc(-c2ccc3ncc(Cc4ccc5ncccc5c4)n3n2)c1 [Example 60, 3-(3-Quinolin-6-ylmethyl-imidazo[1,2-b]pyridazin-6-yl)-benzoic acid ethyl ester] | 340
8 | COc1ccc(-c2ccc3ncc(Cc4ccc5ncccc5c4)n3n2)cn1 [Example 62, 6-[6-(6-Methoxy-pyridin-3-yl)-imidazo[1,2-b]pyridazin-3-ylmethyl]-quinoline] | 39
9 | c1cnc2ccc(Cc3cnc4ccc(-c5ccc6c(c5)CCO6)nn34)cc2c1 [Example 63, 6-[6-(2,3-Dihydro-benzofuran-5-yl)-imidazo[1,2-b]pyridazin-3-ylmethyl]-quinoline] | 190
10 | OCCCc1ccc(-c2ccc3ncc(Cc4ccc5ncccc5c4)n3n2)cc1 [Example 64, 3-[4-(3-Quinolin-6-ylmethyl-imidazo[1,2-b]pyridazin-6-yl)-phenyl]-propan-1-ol] | 79
11 | c1cnc2ccc(Cc3cnc4ccc(-c5ccsc5)nn34)cc2c1 [Example 65, 6-(6-Thiophen-3-yl-imidazo[1,2-b]pyridazin-3-ylmethyl)-quinoline] | 160
12 | CN(C)CCNC(=O)c1cccc(-c2ccc3ncc(Cc4ccc5ncccc5c4)n3n2)c1 [Example 66, N-(2-Dimethylamino-ethyl)-3-(3-quinolin-6-ylmethyl-imidazo[1,2-b]pyridazin-6-yl)-benzamide] | 60
13 | N#Cc1cc(-c2ccc3ncc(Cc4ccc5ncccc5c4)n3n2)ccc1F [Example 67, 2-Fluoro-5-(3-quinolin-6-ylmethyl-imidazo[1,2-b]pyridazin-6-yl)-benzonitrile] | 160
14 | Fc1ccc(-c2ccc3ncc(Cc4ccc5ncccc5c4)n3n2)cc1Cl [Example 68, 6-[6-(3-Chloro-4-fluoro-phenyl)-imidazo[1,2-b]pyridazin-3-ylmethyl]-quinoline] | 480
15 | c1cnc2ccc(Cc3cnc4ccc(-c5ccn[nH]5)nn34)cc2c1 [Example 69, 6-[6-(2H-Pyrazol-3-yl)-imidazo[1,2-b]pyridazin-3-ylmethyl]-quinoline] | 820
16 | CNC(=O)c1ccc(-c2ccc3ncc(Cc4ccc5ncccc5c4)n3n2)cc1F [Example 70, 2-Fluoro-N-methyl-4-(3-quinolin-6-ylmethyl-imidazo[1,2-b]pyridazin-6-yl)-benzamide] | 62
17 | CNC(=O)c1ccc(-c2ccc3ncc(Cc4ccc5ncccc5c4)n3n2)cc1Cl [Example 71, 2-Chloro-N-methyl-4-(3-quinolin-6-ylmethyl-imidazo[1,2-b]pyridazin-6-yl)-benzamide] | 24
18 | Oc1ccc(-c2ccc3ncc(Cc4ccc5ncccc5c4)n3n2)cn1 [Example 73, 5-(3-Quinolin-6-ylmethyl-imidazo[1,2-b]pyridazin-6-yl)-pyridin-2-ol] | 48
19 | Clc1ccc2ncc(Cc3ccc4nccn4c3)n2n1 [Example 74, 6-chloro-3-imidazo[1,2-a]pyridin-6-ylmethyl-imidazo[1,2-b]pyridazine] | 200
20 | OCCNc1ccc2ncc(Cc3ccc4nccn4c3)n2n1 [Example 75, 2-(3-Imidazo[1,2-a]pyridin-6-ylmethyl-imidazo[1,2-b]pyridazin-6-ylamino)-ethanol] | 300
21 | CN(C)[C@@H]1CCN(c2ccc3ncc(Cc4ccc5nccn5c4)n3n2)C1 [Example 76, [(R)-1-(3-Imidazo[1,2-a]pyridin-6-ylmethyl-imidazo[1,2-b]pyridazin-6-yl)-pyrrolidin-3-yl]-dimethyl-amine] | 300
22 | CCC(C)Nc1ccc2ncc(Cc3ccc4ncccc4c3)n2n1 (centres unmarked) [Example 78, sec-Butyl-(3-quinolin-6-ylmethyl-imidazo[1,2-b]pyridazin-6-yl)-amine] | 9

Row | Compound | IC50 [nM]
23 | CC(C)CNc1ccc2ncc(Cc3ccc4ncccc4c3)n2n1 [Example 79, Isobutyl-(3-quinolin-6-ylmethyl-imidazo[1,2-b]pyridazin-6-yl)-amine] | 44
24 | c1cnc2ccc(Cc3cnc4ccc(NCC5CCCO5)nn34)cc2c1 (centres unmarked) [Example 80, (3-Quinolin-6-ylmethyl-imidazo[1,2-b]pyridazin-6-yl)-(tetrahydro-furan-2-ylmethyl)-amine] | 38
25 | c1cnc2ccc(Cc3cnc4ccc(NC5CCCC5)nn34)cc2c1 [Example 81, Cyclopentyl-(3-quinolin-6-ylmethyl-imidazo[1,2-b]pyridazin-6-yl)-amine] | 76
26 | c1ccc(CNc2ccc3ncc(Cc4ccc5ncccc5c4)n3n2)cc1 [Example 82, Benzyl-(3-quinolin-6-ylmethyl-imidazo[1,2-b]pyridazin-6-yl)-amine] | 220
27 | CN1CCC(Nc2ccc3ncc(Cc4ccc5ncccc5c4)n3n2)CC1 [Example 83, (1-Methyl-piperidin-4-yl)-(3-quinolin-6-ylmethyl-imidazo[1,2-b]pyridazin-6-yl)-amine] | 115
28 | c1cnc2ccc(Cc3cnc4ccc(N5CCOCC5)nn34)cc2c1 [Example 84, 6-(6-Morpholin-4-yl-imidazo[1,2-b]pyridazin-3-ylmethyl)-quinoline] | 49
29 | c1cnc2ccc(Cc3cnc4ccc(N5CCCC5)nn34)cc2c1 [Example 85, 6-(6-Pyrrolidin-1-yl-imidazo[1,2-b]pyridazin-3-ylmethyl)-quinoline] | 95
30 | CN(C)C1CCN(c2ccc3ncc(Cc4ccc5ncccc5c4)n3n2)CC1 [Example 86, Dimethyl-[1-(3-quinolin-6-ylmethyl-imidazo[1,2-b]pyridazin-6-yl)-piperidin-4-yl]-amine] | 160
31 | CN(C)[C@@H]1CCN(c2ccc3ncc(Cc4ccc5ncccc5c4)n3n2)C1 [Example 88, Dimethyl-[(R)-1-(3-quinolin-6-ylmethyl-imidazo[1,2-b]pyridazin-6-yl)-pyrrolidin-3-yl]-amine] | 12
32 | COCCNc1ccc2ncc(Cc3ccc4ncccc4c3)n2n1 [Example 89, (2-Methoxy-ethyl)-(3-quinolin-6-ylmethyl-imidazo[1,2-b]pyridazin-6-yl)-amine] | 26
33 | CCC(CC)Nc1ccc2ncc(Cc3ccc4ncccc4c3)n2n1 [Example 90, (1-Ethyl-propyl)-(3-quinolin-6-ylmethyl-imidazo[1,2-b]pyridazin-6-yl)-amine] | 74
34 | CC(C)Nc1ccc2ncc(Cc3ccc4ncccc4c3)n2n1 [Example 91, Isopropyl-(3-quinolin-6-ylmethyl-imidazo[1,2-b]pyridazin-6-yl)-amine] | 29
35 | OCCNc1ccc2ncc(Cc3ccc4ncccc4c3)n2n1 [Example 92, 2-(3-Quinolin-6-ylmethyl-imidazo[1,2-b]pyridazin-6-ylamino)-ethanol] | 32
36 | Cc1csc(Nc2ccc3ncc(Cc4ccc5ncccc5c4)n3n2)n1 [Example 93] | 390
37 | CC(=O)NCCNc1ccc2ncc(Cc3ccc4ncccc4c3)n2n1 [Example 96, N-[2-(3-Quinolin-6-ylmethyl-imidazo[1,2-b]pyridazin-6-ylamino)-ethyl]-acetamide] | 190
38 | c1cnc2ccc(Cc3cnc4ccc(NC5CCCCCCC5)nn34)cc2c1 [Example 97, Cyclooctyl-(3-quinolin-6-ylmethyl-imidazo[1,2-b]pyridazin-6-yl)-amine] | 610
39 | CCC(C)(C)Nc1ccc2ncc(Cc3ccc4ncccc4c3)n2n1 [Example 98, (1,1-Dimethyl-propyl)-(3-quinolin-6-ylmethyl-imidazo[1,2-b]pyridazin-6-yl)-amine] | 110
40 | O=S1(=O)CCC(Nc2ccc3ncc(Cc4ccc5ncccc5c4)n3n2)C1 (centres unmarked) [Example 99, 1,1-Dioxo-tetrahydro-1lambda*6*-thiophen-3-yl)-(3-quinolin-6-ylmethyl-imidazo[1,2-b]pyridazin-6-yl)-amine] | 120
41 | CN(C)CCCNc1ccc2ncc(Cc3ccc4ncccc4c3)n2n1 [Example 101, N,N-Dimethyl-N′-(3-quinolin-6-ylmethyl-imidazo[1,2-b]pyridazin-6-yl)-propane-1,3-diamine] | 130
42 | O=C1CN(c2ccc3ncc(Cc4ccc5ncccc5c4)n3n2)CCN1 [Example 102, 4-(3-Quinolin-6-ylmethyl-imidazo[1,2-b]pyridazin-6-yl)-piperazin-2-one] | 38
43 | CC(Nc1ccc2ncc(Cc3ccc4ncccc4c3)n2n1)c1ccccc1 (centres unmarked) [Example 103, (1-Phenyl-ethyl)-(3-quinolin-6-ylmethyl-imidazo[1,2-b]pyridazin-6-yl)-amine] | 550
44 | CN(C)c1ccc2ncc(Cc3ccc4ncccc4c3)n2n1 [Example 106, Dimethyl-(3-quinolin-6-ylmethyl-imidazo[1,2-b]pyridazin-6-yl)-amine] | 74

From patent US8822468B2 (Novartis AG, priority 2008, dated 2014)
